Measured values: article PMC10606834, “Is the Neuropeptide PEN a Ligand of GPR83?” (International Journal of Molecular Sciences, 2023)

How the values were obtained:
[1] = test system: ERK1/2 phosphorylation in HEK293 cells overexpressing GPR83 or GPR83del; assay: ERK1/2 phosphorylation (immunoblot), GPR83 cells; format: cell-based, human; conditions: 15 min; for phosphorylation of ERK1/2: 10 µM PEN #1, 100 ng/mL EGF or 200 nM PMA, HEK293 overexpressing GPR83 or GPR83del as well as wild-type HEK293, n = 2 independent experiments
From the text: Apart from G protein-mediated second messenger signaling via Ca^2+ and cAMP, GPCR stimulation may also lead to activation of β-arrestin and phosphorylation of extracellular signal-regulated kinases 1/2 (ERK1/2). Immunoblot analysis was employed to investigate ligand-dependent phosphorylation of ERK1/2 in HEK293 cells overexpressing GPR83 or the deletion variant GPR83del as well as in wild-type HEK293 cells.
Figure 4 Ligand-dependent phosphorylation of ERK1/2 and β-arrestin (TANGO) assay. (A) Immunoblot detection of phosphorylated (upper blot) and total (lower blot) ERK1/2 in lysates of HEK293 wild-type cells and in HEK293 cells overexpressing GPR83 or GPR83del. (B) Quantification (mean ± SD of n = 2 independent experiments) of chemiluminescent readout of the immunoblots shown in (A). (C) TANGO assay for ligand-induced β-arrestin activity in HTLA cells overexpressing GPR83 (relative light units, RLU). (D) TANGO assay for ligand-induced β-arrestin activity in HTLA cells overexpressing bradykinin receptor BDKBR2.
4.7. ERK1/2 Phosphorylation Assay
Effects of GPCR ligands on MAPK signaling were assessed with Western blot analysis of lysates from stimulated cells. The ERK1/2 activation assay was performed as described before. Briefly, 50,000 cells per well were seeded onto adherent 6-well plates and cultured until cells were 80% confluent. After incubation with ligands (10 µM PEN #1 and 100 ng/mL EGF or 200 nM PMA in 0.1% FCS/DMEM) for 15 min, cells were lysed using 200 µL/well cell lysis buffer (100 mM Tris-HCl pH 8.8, 1% SDS) and protease inhibitors (cOmplete, Roche, Basel, Switzerland) on ice for one hour. Immunolabeling was realized using the rabbit monoclonal primary antibody anti-phospho-ERK1/2 Thr^202/Tyr^204 (#4370, Cell Signaling Technologies, Danvers, MA, USA, 1:2000), or anti-total ERK1/2 (#05-1152; Millipore, Burlington, VT, USA; 1:2000), respectively. Blots were analyzed using densitometric quantification using Image Lab Software v4.1 (Bio-Rad).

[2] = test system: GPR83 and GPR83del, with or without HA tag (HEK293 cells; wild-type HEK293 as comparison); assay: Competitive radioligand binding assay, GPR83; parameters: species or system human; conditions: pH 7.4, 2 h; for radioligand binding signal: 100,000 cpm 125I-labelled peptide, wild-type HEK293 and HEK293 expressing full-length or deletion variant GPR83, with or without HA tag
From the text: One of the most proven methods for quantitatively analyzing the interaction of biomolecules is the competitive radioligand binding assay. […] To safeguard against possible interference of the added Tyr with ligand–receptor binding, two peptides were created and are as follows: one with the Tyr on the aminoterminal end (Tyr-PEN), and the other with Tyr added on the carboxyterminus (PEN-Tyr). Radiolabeled ^125I-PEN-Tyr and ^125I-Tyr-PEN were then used on wild-type HEK293 cells and HEK293 cells expressing various forms of GPR83 (full-length or deletion variant, with or without HA tag) in competition with different concentrations of natural PEN or Tyr-PEN, ranging from 1 pM to 1 µM.
Figure 5 HEK293 wild-type cells and HEK293 cells overexpressing various forms of GPR83 were used in radioligand binding assays with two different radioactively labeled PEN peptides: [^125I]-Tyr-PEN or [^125I]-PEN-Tyr. (A) Radioligand [^125I]-PEN-Tyr in competition with unlabeled wild-type PEN. (B) Radioligand [^125I]-Tyr-PEN in competition with unlabeled wild-type PEN. (C) Radioligand [^125I]-PEN-Tyr in competition with unlabeled wild-type PEN. (D) Radioligand [^125I]-Tyr-PEN in competition with Tyr-PEN. […]
Two variants of human PENs were utilized for radioiodination in this study: one with a tyrosine added at the aminoterminal end (Tyr-PEN: […]-NH2), and one with an additional tyrosine attached to the carboxyterminal end (PEN-Tyr: […]-NH2). Both were labelled with ^125I using the chloramine-T method. Chloramine-T and sodium metabisulfite solutions were freshly prepared in water. For labelling, 10 µL of peptide (stock 1 mM) with 15 µL of sodium phosphate buffer (0.5 M, pH 7.6) was mixed with 37 MBq carrier-free Na^125I (NEZ033L010MC, Perkin Elmer, Waltham, MA, USA). A 4 μL volume of chloramine T (1 mg/mL) was added to start the reaction, and after 30 s, 4 μL sodium metabisulfite (2 mg/mL) was added to stop the iodination. The labeled radioactive peptide was separated from unlabeled peptide with HPLC purification (Agilent ZORBAX 300 Extend-C18 column) using a gradient from 20–50% acetonitrile (+0.1% TFA) against water (+0.1% TFA) for 20 min. To determine the retention time of the radioactive peptide, 1–2 µL of the reaction mixture was analyzed before the purification run. The fraction containing the radiolabeled peptide peak was then collected, diluted with binding buffer to prevent radioautolysis, aliquoted, and stored at −80 °C.
4.10. Radioligand Binding Assay
For competitive radioligand binding assay, approximately 50,000 cells/well were seeded in a 96-well plate incubated overnight at 37 °C. Next day, cells were incubated in binding buffer (50 mM HEPES pH 7.4, 5 mM MgCl2, 1 mM CaCl2, 0.5% BSA, cOmplete protease inhibitors) containing 100,000 counts per minute of ^125I-labelled peptide, with increasing concentrations of unlabeled peptide. After 2 h of incubation, cells were washed for 2–3 times with ice-cold washing buffer (50 mM Tris-HCl, pH 7.4, 125 mM NaCl, 0.05% BSA) and lysed with 1 N NaOH (80 µL/well). The lysed cells were transferred to vials and measured in a gamma counter (Wallac 1470 Wizard, Perkin Elmer, Waltham, MA, USA). Obtained cpm values were plotted with GraphPad Prism 7, and the data were fitted using nonlinear regression (one site—fit Ki, one site—fit logIC50).

[3] = test system: GPR83 and GPR83del (HEK293 and U2OS clones; wild-type cells as comparison); assay: Ligand-dependent cAMP formation; format: cell-based, human; conditions: 1 µM PEN or 50 µM forskolin, GPR83-overexpressing clones and wild-type HEK293 and U2OS cells, 10 min incubation, LANCE Ultra cAMP kit, TR-FRET competition, duplicate
Protocol: Production of cyclic adenosine monophosphate (cAMP) is a hallmark of GPCRs signaling via the Gs-induced pathway. To investigate the potential of PEN to stimulate cAMP production mediated by GPR83, levels of the second messenger were determined after incubation with PEN of various GPR83-overexpressing clones as well as wild-type HEK293 and U2OS cells.
Figure 3 Analysis of ligand-dependent, GPR83-mediated cAMP production. (A) Wild-type HEK293 and U2OS cells as well as various clones with confirmed overexpression of either GPR83 or the deletion variant GPR83del (both ± HA tag) were incubated with either buffer, 1 µM PEN, or 50 µM forskolin. (B) Selected GPR83-overexpressing HEK293 clones were assayed for cAMP production using different concentrations of PEN. (C) Selected GPR83-overexpressing U2OS clones were assayed for cAMP production using different concentrations of PEN.
To measure intracellular cAMP production, the LANCE Ultra cAMP kit (Perkin Elmer) was used according to the manufacturer’s instructions. The day before the experiment, cells were seeded onto a 96-well plate with approximately 80% confluence. After 16–24 h, the medium was removed, and 100 μL/well of serum-free medium was added, followed by a 3 h incubation. Thereafter, medium was removed, and 40 μL of ligand dissolved in cAMP stimulation buffer was pipetted onto cells, then incubated for 10 min. The ligands used were pipetted in duplicate. For concentration–response curves, serial dilutions were carried out from the stock solutions of 1 mM to create a concentration range from 1 µM to 30 pM. As controls, 4 wells were treated with buffer only (negative control) and 4 wells with 50 μM forskolin (positive control). After a 10 min incubation, 10 μL of a 0.5% Triton-X 100 solution in PBS was added to each well. To lyse cells, the plate was shaken on a Vibramax 100 Shaker (Heidolph, Kelheim, Germany) (750 rpm) at room temperature for 10 min. A 10 μL volume of the cell lysates were transferred into a white 384 well plate (ProxiPlate, PerkinElmer). A 5 μL volume of the Europium-cAMP tracer (1 to 50 dilution of Eu-tracer stock in cAMP detection buffer) was added to each well. Next, 5 μL of the ULight-anti-cAMP solution (1 to 150 dilution of ULight-tracer stock in cAMP detection buffer) was added to each well. After a 1 h incubation period at room temperature in the dark, the TR-FRET signal was measured using an EnVision 2103 Multilabel Reader (Perkin Elmer).

| Compound | phosphorylation of ERK1/2 [1] | radioligand binding signal [2] | other results |
| --- | --- | --- | --- |
| EGF: positive control, epithelial growth factor (as printed) (NSDSECPLSHDGYCLHDGVCMYIEALDKYACNCVVGYIGERCQYRDLKWWELR; Epidermal growth factor; UniProt P01133 971-1023, looked up) | substantially induced phosphorylation of ERK1/2 |  | phosphorylation of ERK1/2, rank of response ([1]; 100 ng/mL EGF, compared with PEN and PMA, n = 2): strongest response |
| ^125I-Tyr-PEN: Tyr-PEN labelled with 125I using the chloramine-T method |  | neither of these different assay conditions led to a PEN-GPR83 binding signal above background |  |
| CCCCCCCCCCCCCC(=O)O[C@@H]1[C@@H](C)[C@@]2(O)[C@@H](C=C(CO)C[C@]3(O)C(=O)C(C)=C[C@@H]23)[C@@H]2C(C)(C)[C@]12OC(C)=O [PMA, phorbol-12-myristate-13-acetate, reference compound] | substantially induced phosphorylation of ERK1/2 |  |  |
| YAADHDVGSELPPEGVLGALLRV-NH2 [Tyr-PEN, human PEN with a tyrosine added at the aminoterminal end] |  |  | concentration-dependent displacement of radioligand ([2]; unlabeled peptide 1 pM to 1 µM versus 125I-PEN-Tyr or 125I-Tyr-PEN, HEK293 wild-type and GPR83 / GPR83del with or without HA tag): neither of these different assay conditions led to a PEN-GPR83 binding signal above background or a concentration-dependent displacement of the radioligand |
| C=C[C@@]1(C)CC(=O)[C@]2(O)[C@@]3(C)[C@@H](O)CCC(C)(C)[C@@H]3[C@H](O)[C@H](OC(C)=O)[C@@]2(C)O1 [forskolin, reference compound] |  |  | cAMP levels [3]: strongly increased cAMP levels; cAMP levels ([3]; listed as Forskolin): strong induction of intracellular cAMP |
| ^125I-PEN-Tyr: PEN-Tyr labelled with 125I using the chloramine-T method |  | neither of these different assay conditions led to a PEN-GPR83 binding signal above background |  |
